Results published in ChEMBL document CHEMBL1142897, “Synthesis, characterization and antimicrobial activity of Fe(II), Zn(II), Cd(II) and Hg(II) complexes with 2,6-bis(benzimidazol-2-yl) pyridine ligand” (2007).

Experiments:
Escherichia coli [1] = experiment: Antibacterial activity against Escherichia coli after 72 hrs by disk diffusion method; format: functional
Micrococcus luteus [2] = experiment: Antibacterial activity against Micrococcus luteus after 72 hrs by disk diffusion method; format: functional
Bacillus cereus [3] = experiment: Antibacterial activity against Bacillus cereus after 72 hrs by disk diffusion method; format: functional
Proteus vulgaris [4] = experiment: Antibacterial activity against Proteus vulgaris after 72 hrs by disk diffusion method; format: functional
Staphylococcus aureus [5] = experiment: Antibacterial activity against Staphylococcus aureus after 72 hrs by disk diffusion method; format: functional
Listeria monocytogenes [6] = experiment: Antibacterial activity against Listeria monocytogenes after 72 hrs by disk diffusion method; format: functional
Pseudomonas aeruginosa [7] = experiment: Antibacterial activity against Pseudomonas aeruginosa after 72 hrs by disk diffusion method; format: functional
Klebsiella pneumoniae [8] = experiment: Antibacterial activity against Klebsiella pneumoniae after 72 hrs by disk diffusion method; format: functional
[9] = tested on: Mycolicibacterium smegmatis; experiment: Antibacterial activity against Mycobacterium smegmatis after 72 hrs by disk diffusion method; format: functional
Candida albicans [10] = experiment: Antifungal activity against Candida albicans after 24 hrs by disk diffusion method; format: functional
Kluyveromyces marxianus [11] = experiment: Antifungal activity against Kluyveromyces fragilis after 24 hrs by disk diffusion method; format: functional
Debaryomyces hansenii [12] = experiment: Antifungal activity against Debaryomyces hansenii after 24 hrs by disk diffusion method; format: functional
Rhodotorula mucilaginosa [13] = experiment: Antifungal activity against Rhodotorula rubra after 24 hrs by disk diffusion method; format: functional
[14] = tested on: Hanseniaspora guilliermondii; experiment: Antifungal activity against Hanseniaspora guilliermondii after 24 hrs by disk diffusion method; format: functional
Candida albicans [15] = experiment: Antifungal activity against Candida albicans after 24 hrs by dilution method; format: functional, organism-based
Debaryomyces hansenii [16] = experiment: Antifungal activity against Debaryomyces hansenii after 24 hrs by dilution method; format: functional, organism-based
Rhodotorula mucilaginosa [17] = experiment: Antifungal activity against Rhodotorula rubra after 24 hrs by dilution method; format: functional, organism-based
[18] = tested on: Hanseniaspora guilliermondii; experiment: Antifungal activity against Hanseniaspora guilliermondii after 24 hrs by dilution method; format: functional, organism-based
Kluyveromyces marxianus [19] = experiment: Antifungal activity against Kluyveromyces fragilis after 24 hrs by dilution method; format: functional, organism-based
Escherichia coli [20] = experiment: Antibacterial activity against Escherichia coli after 24 hrs by dilution method; format: functional, organism-based
Bacillus cereus [21] = experiment: Antibacterial activity against Bacillus cereus after 24 hrs by dilution method; format: functional, organism-based
Micrococcus luteus [22] = experiment: Antibacterial activity against Micrococcus luteus after 24 hrs by dilution method; format: functional, organism-based
[23] = tested on: Mycolicibacterium smegmatis; experiment: Antibacterial activity against Mycobacterium smegmatis after 24 hrs by dilution method; format: functional, organism-based
Pseudomonas aeruginosa [24] = experiment: Antibacterial activity against Pseudomonas aeruginosa after 24 hrs by dilution method; format: functional, organism-based
Proteus vulgaris [25] = experiment: Antibacterial activity against Proteus vulgaris after 24 hrs by dilution method; format: functional, organism-based
Klebsiella pneumoniae [26] = experiment: Antibacterial activity against Klebsiella pneumoniae after 24 hrs by dilution method; format: functional, organism-based
Listeria monocytogenes [27] = experiment: Antibacterial activity against Listeria monocytogenes after 24 hrs by dilution method; format: functional, organism-based
Staphylococcus aureus [28] = experiment: Antibacterial activity against Staphylococcus aureus after 24 hrs by dilution method; format: functional, organism-based

CC1COc2c(N3CCN(C)CC3)c(F)cc3c(=O)c(C(=O)O)cn1c23 (configuration not stated) [OFLOXACIN]
inhibition zone (IZ) (Escherichia coli [1]): 30 mm | inhibition zone (IZ) (Micrococcus luteus [2]): 28 mm | inhibition zone (IZ) (Bacillus cereus [3]): 30 mm | inhibition zone (IZ) (Proteus vulgaris [4]): 28 mm | inhibition zone (IZ) (Staphylococcus aureus [5]): 24 mm | inhibition zone (IZ) (Listeria monocytogenes [6]): 30 mm | inhibition zone (IZ) (Pseudomonas aeruginosa [7]): 44 mm | inhibition zone (IZ) (Klebsiella pneumoniae [8]): 28 mm | inhibition zone (IZ) [9]: 32 mm

Clc1ccccc1C(c1ccccc1)(c1ccccc1)n1ccnc1 [CLOTRIMAZOLE]
inhibition zone (IZ) (Candida albicans [10]): 15 mm | inhibition zone (IZ) (Kluyveromyces marxianus [11]): 18 mm | inhibition zone (IZ) (Debaryomyces hansenii [12]): 18 mm | inhibition zone (IZ) (Rhodotorula mucilaginosa [13]): 16 mm | inhibition zone (IZ) [14]: 22 mm

CN[C@H](CC(C)C)C(=O)N[C@H]1C(=O)N[C@@H](CC(N)=O)C(=O)N[C@H]2C(=O)N[C@H]3C(=O)N[C@H](C(=O)N[C@H](C(=O)O)c4cc(O)cc(O)c4-c4cc3ccc4O)[C@H](O)c3ccc(c(Cl)c3)Oc3cc2cc(c3O[C@@H]2O[C@H](CO)[C@@H](O)[C@H](O)[C@H]2O[C@H]2C[C@](C)(N)[C@H](O)[C@H](C)O2)Oc2ccc(cc2Cl)[C@H]1O [VANCOMYCIN]
inhibition zone (IZ) (Escherichia coli [1]): 22 mm | inhibition zone (IZ) (Micrococcus luteus [2]): 34 mm | inhibition zone (IZ) (Bacillus cereus [3]): 18 mm | inhibition zone (IZ) (Proteus vulgaris [4]): 20 mm | inhibition zone (IZ) (Staphylococcus aureus [5]): 13 mm | inhibition zone (IZ) (Listeria monocytogenes [6]): 26 mm | inhibition zone (IZ) (Pseudomonas aeruginosa [7]): 10 mm | inhibition zone (IZ) (Klebsiella pneumoniae [8]): 22 mm | inhibition zone (IZ) [9]: 20 mm

CC1(C)S[C@@H]2[C@H](NC(=O)Cc3ccccc3)C(=O)N2[C@H]1C(=O)O [PENICILLIN G]
inhibition zone (IZ) (Escherichia coli [1]): 18 mm | inhibition zone (IZ) (Micrococcus luteus [2]): 36 mm | inhibition zone (IZ) (Bacillus cereus [3]): 14 mm | inhibition zone (IZ) (Proteus vulgaris [4]): 10 mm | inhibition zone (IZ) (Staphylococcus aureus [5]): 13 mm | inhibition zone (IZ) (Listeria monocytogenes [6]): 10 mm | inhibition zone (IZ) (Pseudomonas aeruginosa [7]): 8 mm | inhibition zone (IZ) (Klebsiella pneumoniae [8]): 18 mm | inhibition zone (IZ) [9]: 15 mm

NYSTATIN
MIC (Candida albicans [15]): 3.12 µg/mL | MIC (Debaryomyces hansenii [16]): 12.5 µg/mL | inhibition zone (IZ) (Kluyveromyces marxianus [11]): 18 mm | MIC (Rhodotorula mucilaginosa [17]): 6.25 µg/mL | MIC [18]: 3.12 µg/mL | inhibition zone (IZ) (Debaryomyces hansenii [12]): 16 mm | inhibition zone (IZ) (Rhodotorula mucilaginosa [13]): 18 mm | MIC (Kluyveromyces marxianus [19]): 6.25 µg/mL | inhibition zone (IZ) [14]: 21 mm

CC(=O)N1CCN(c2ccc(OCC3COC(Cn4ccnc4)(c4ccc(Cl)cc4Cl)O3)cc2)CC1 (configuration not stated) [KETOCONAZOLE]
inhibition zone (IZ) (Candida albicans [10]): 21 mm | inhibition zone (IZ) (Kluyveromyces marxianus [11]): 16 mm | inhibition zone (IZ) (Debaryomyces hansenii [12]): 14 mm | inhibition zone (IZ) (Rhodotorula mucilaginosa [13]): 22 mm | inhibition zone (IZ) [14]: 24 mm

CN(C)[C@@H]1C(O)=C(C(N)=O)C(=O)[C@@]2(O)C(O)=C3C(=O)c4c(O)cccc4[C@@](C)(O)[C@H]3C[C@@H]12 [TETRACYCLINE]
inhibition zone (IZ) (Escherichia coli [1]): 28 mm | inhibition zone (IZ) (Micrococcus luteus [2]): 22 mm | inhibition zone (IZ) (Bacillus cereus [3]): 25 mm | inhibition zone (IZ) (Proteus vulgaris [4]): 26 mm | inhibition zone (IZ) (Staphylococcus aureus [5]): 26 mm | inhibition zone (IZ) (Listeria monocytogenes [6]): 28 mm | inhibition zone (IZ) (Pseudomonas aeruginosa [7]): 34 mm | inhibition zone (IZ) (Klebsiella pneumoniae [8]): 30 mm | inhibition zone (IZ) [9]: 24 mm

CO/N=C(\C(=O)N[C@@H]1C(=O)N2C(C(=O)O)=C(COC(C)=O)CS[C@H]12)c1csc(N)n1 [CEFOTAXIME]
inhibition zone (IZ) (Escherichia coli [1]): 10 mm | inhibition zone (IZ) (Micrococcus luteus [2]): 32 mm | inhibition zone (IZ) (Bacillus cereus [3]): 14 mm | inhibition zone (IZ) (Proteus vulgaris [4]): 18 mm | inhibition zone (IZ) (Staphylococcus aureus [5]): 12 mm | inhibition zone (IZ) (Listeria monocytogenes [6]): 16 mm | inhibition zone (IZ) (Pseudomonas aeruginosa [7]): 54 mm | inhibition zone (IZ) (Klebsiella pneumoniae [8]): 13 mm | inhibition zone (IZ) [9]: 11 mm

GENTAMICIN
MIC (Escherichia coli [20]): 6.25 µg/mL | MIC (Bacillus cereus [21]): 6.25 µg/mL | MIC (Micrococcus luteus [22]): 25 µg/mL | MIC [23]: 12.5 µg/mL | MIC (Pseudomonas aeruginosa [24]): 6.25 µg/mL | MIC (Proteus vulgaris [25]): 6.25 µg/mL | MIC (Klebsiella pneumoniae [26]): 6.25 µg/mL | MIC (Listeria monocytogenes [27]): 12.5 µg/mL | MIC (Staphylococcus aureus [28]): 25 µg/mL

CC1(C)S[C@@H]2[C@H](NC(=O)[C@H](N)c3ccccc3)C(=O)N2[C@H]1C(=O)O [AMPICILLIN]
inhibition zone (IZ) (Escherichia coli [1]): 12 mm | inhibition zone (IZ) (Micrococcus luteus [2]): 32 mm | inhibition zone (IZ) (Bacillus cereus [3]): 12 mm | inhibition zone (IZ) (Proteus vulgaris [4]): 16 mm | inhibition zone (IZ) (Staphylococcus aureus [5]): 16 mm | inhibition zone (IZ) (Listeria monocytogenes [6]): 12 mm | inhibition zone (IZ) (Pseudomonas aeruginosa [7]): 10 mm | inhibition zone (IZ) (Klebsiella pneumoniae [8]): 14 mm | inhibition zone (IZ) [9]: 21 mm
